Results on 26 compounds are retold here after US8173654B2, “Triazolopyridazine compounds” (Janssen Pharmaceutica N.V., priority 2005, dated 2012).

Assay [1] deals with T1, c-Met (Homo sapiens, UniProt P08581). In words: Cell based ELISA assay for HGF stimulated c-Met phosphorylation in S114 cells. Set-up: expressed in transfected cells; host or cells: S114 (murine NIH 3T3 derived). The settings on record: read-out: c-Met Cell ELISA IC-50. As for the experimental part:
A cell based ELISA assay was developed to evaluate the ability of compounds to inhibit HGF stimulated c-Met phosphorylation in cells.
S114 cells were seeded to a 96 well tissue culture treated dish at a concentration of 5×10^4 per well. After a 16-20 hour incubation, culture medium was removed and replaced with serum free medium supplemented with 0.5% BSA. Test compound was then added and incubated with the cells for 60 minutes, followed by the addition of 1 μl HGF at […] for 15 minutes. […] Following another 1 hour incubation at room temperature the plates were washed three times with Delfia wash buffer (Perkin Elmer). After the final wash, […] of Delfia enhancer solution (Perkin Elmer) was added and allowed to incubate for 60 minutes. Plates were read on an LJL Analyst instrument (Molecular Devices; Sunnyvale, Calif.) with filter settings of 360 excitation, 620 emission, and 410 dichroic. IC50 values were calculated using Graphpad Prism software (Graphpad Software; San Diego, Calif.).
(ELISA stands for enzyme-linked immunosorbent assay.)
Target sequence in this assay (P08581 25-1390): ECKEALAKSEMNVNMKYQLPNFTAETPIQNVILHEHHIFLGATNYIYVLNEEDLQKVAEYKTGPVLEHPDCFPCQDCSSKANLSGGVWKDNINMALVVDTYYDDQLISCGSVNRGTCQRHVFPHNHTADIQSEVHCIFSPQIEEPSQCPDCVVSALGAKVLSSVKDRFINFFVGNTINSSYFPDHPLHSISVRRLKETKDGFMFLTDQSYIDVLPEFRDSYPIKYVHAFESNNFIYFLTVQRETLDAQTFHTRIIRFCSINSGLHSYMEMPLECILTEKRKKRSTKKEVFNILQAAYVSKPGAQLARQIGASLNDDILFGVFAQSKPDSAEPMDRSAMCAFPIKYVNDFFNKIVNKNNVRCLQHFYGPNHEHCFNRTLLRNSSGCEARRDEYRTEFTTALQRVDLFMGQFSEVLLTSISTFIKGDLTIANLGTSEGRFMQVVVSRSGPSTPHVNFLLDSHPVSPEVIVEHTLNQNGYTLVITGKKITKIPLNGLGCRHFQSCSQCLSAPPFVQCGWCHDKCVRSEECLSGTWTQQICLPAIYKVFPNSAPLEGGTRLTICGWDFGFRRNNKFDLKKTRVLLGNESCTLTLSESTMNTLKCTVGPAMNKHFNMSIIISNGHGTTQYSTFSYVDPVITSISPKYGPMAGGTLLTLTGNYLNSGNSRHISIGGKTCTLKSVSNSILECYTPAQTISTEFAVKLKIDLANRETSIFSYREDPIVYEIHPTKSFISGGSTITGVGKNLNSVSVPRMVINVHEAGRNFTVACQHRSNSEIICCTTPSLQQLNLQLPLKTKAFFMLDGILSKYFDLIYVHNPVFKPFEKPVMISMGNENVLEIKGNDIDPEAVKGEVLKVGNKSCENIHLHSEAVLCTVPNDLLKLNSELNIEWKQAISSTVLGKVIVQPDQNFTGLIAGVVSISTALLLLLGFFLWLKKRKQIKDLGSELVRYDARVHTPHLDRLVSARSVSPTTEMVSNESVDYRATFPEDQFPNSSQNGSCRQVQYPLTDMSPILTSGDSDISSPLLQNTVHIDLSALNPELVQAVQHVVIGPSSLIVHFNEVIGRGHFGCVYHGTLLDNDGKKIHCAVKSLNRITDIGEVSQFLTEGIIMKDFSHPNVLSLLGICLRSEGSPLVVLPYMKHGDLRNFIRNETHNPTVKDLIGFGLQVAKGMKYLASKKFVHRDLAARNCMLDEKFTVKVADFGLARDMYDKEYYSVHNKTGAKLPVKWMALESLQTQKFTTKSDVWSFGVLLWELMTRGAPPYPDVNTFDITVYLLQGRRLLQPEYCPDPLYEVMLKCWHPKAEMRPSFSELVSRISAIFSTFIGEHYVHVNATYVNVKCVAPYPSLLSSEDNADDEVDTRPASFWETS

The target of assay [2] is T1, c-Met. As to the kind of experiment: Delfia autophosphorylation kinase assay on the c-Met. It counts as biochemical. The arrangement: The purified His6 tagged cytoplasmic domain of c-Met was diluted to a concentration of 500 ng/ml; host or cells: Sf9 insect cells (baculovirus, pFastBacHTa). The settings on record: His6 tagged cytoplasmic domain of c-Met, 1 μM ATP; read-out: cMet Delfia autophos IC-50. As for the experimental part:
A DELFIA time resolved fluorescence assay was developed for screening of compounds that decreases the autophosphorylation thus the kinase activity of c-Met. The DELFIA assay is non-radioactive. The autophosphorylation of the c-Met is measured by an anti-phosphotyrosine antibody coupled to an Europium tag.
A major advantage of this format is that it allowed for the development of an autophosphorylation assay using Ni-chelate plates which bind the hexa-his tag on the recombinant Met kinase. The autophosphorylation assay allows one to use a known substrate, Met kinase itself, for the phosphorylation.
The assay procedure for screening is as follows. The purified His6 tagged cytoplasmic domain of c-Met was diluted to a concentration of 500 ng/ml in enzyme dilution buffer (50 mM Tris-HCl, pH8.0, 0.1% BSA) and dispensed to assay plates at a volume of 50 μl per well. Black opaque HisGrab Nickel coated 96 well plates (Pierce, Rockford, Ill.) were selected for use. Next, 2.5 μl of compound in 40% DMSO was added to test wells, 2.5 μl of 40% DMSO only was added to the negative control wells. The autophosphorylation reaction was initiated upon the addition of 50 μl of reaction buffer, 50 mM Tris-HCl, pH 8.0, 10 mM MgCl2, 0.1 mM Na3VO4, 1 mM DTT, 1 μM ATP. Plates were incubated at room temperature for 1 hour followed by 2 washes with 200 μl/well of PBS. Europium conjugated anti-phosphotyrosine antibody, Eu-PY20 from Perkin Elmer was diluted to 50 ng/ml in Delfia AB buffer (Perkin Elmer, Boston, Mass.), added to the 96 well assay plates at a volume of 100 μl/well, and incubated at room temperature for 2 hours. Assay plates were then washed 4 times each with 200 μl/well of Delfia wash buffer (Perkin Elmer). After the final wash 150 μl of Delfia Enhancement solution (Perkin Elmer) was added to each well of the assay plate and incubated at room temperature for 1 hour. Plates were read on an LJL Analyst instrument (Molecular Devices; Sunnyvale, Calif.) with filter settings of 360 excitation, 620 emission, and 410 dichroic. IC50 values were calculated using Graphpad Prism software (Graphpad Software; San Diego, Calif.).
Target sequence in this assay (P08581 956-1390 limits assumed): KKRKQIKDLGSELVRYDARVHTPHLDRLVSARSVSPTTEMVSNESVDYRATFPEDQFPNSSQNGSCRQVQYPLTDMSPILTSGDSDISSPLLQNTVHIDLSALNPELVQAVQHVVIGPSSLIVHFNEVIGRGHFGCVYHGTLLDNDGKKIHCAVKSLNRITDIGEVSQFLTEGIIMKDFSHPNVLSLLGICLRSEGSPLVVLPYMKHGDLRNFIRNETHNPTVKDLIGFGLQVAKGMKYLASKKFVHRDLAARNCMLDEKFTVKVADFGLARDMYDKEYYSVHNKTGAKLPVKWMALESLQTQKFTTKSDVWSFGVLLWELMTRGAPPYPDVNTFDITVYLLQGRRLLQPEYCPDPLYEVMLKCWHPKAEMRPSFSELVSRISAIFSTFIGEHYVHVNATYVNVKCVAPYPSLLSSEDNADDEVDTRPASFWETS

The structures appear in SMILES notation.

For the compound `Oc1ccc(Cc2nnc3ccc(-c4cn[nH]c4)nn23)cc1` [Example 3, 4-[6-(1H-Pyrazol-4-yl)-[1,2,4]triazolo[4,3-b]pyridazin-3-ylmethyl]-phenol], the figures for the IC50 in assay [1] and in assay [2] were 1030 nM and 16 nM, respectively.

On to `Oc1ccc(Cc2nnc3ccc(-c4ccn[nH]4)nn23)cc1` [Example 5, 4-[6-(2H-Pyrazol-3-yl)-[1,2,4]triazolo[4,3-b]pyridazin-3-ylmethyl]-phenol], for which the results for the IC50 in assay [1] and in assay [2] were 1930 nM and 15 nM, respectively.

Consider `c1cnc2ccc(Cc3nnc4ccc(-c5ccncc5)nn34)cc2c1` [Example 6, 6-(6-Pyridin-4-yl-[1,2,4]triazolo[4,3-b]pyridazin-3-ylmethyl)-quinoline], for which the IC50 in assay [1] stood at 112 nM; in assay [2], 8 nM.

For the compound `c1cc(-c2ccc3nnc(Cc4ccc5c(c4)CCO5)n3n2)ccn1` [Example 7, 3-(2,3-Dihydro-benzofuran-5-ylmethyl)-6-pyridin-4-yl-[1,2,4]triazolo[4,3-b]pyridazine], the IC50 in assay [1] is 2150 nM; in assay [2], 111 nM.

`CCCn1cc(-c2ccc3nnc(Cc4ccc5ncccc5c4)n3n2)cn1` [Example 9, 6-[6-(1-Propyl-1H-pyrazol-4-yl)-[1,2,4]triazolo[4,3-b]pyridazin-3-ylmethyl]-quinoline]: the figures for the IC50 in assay [1] and in assay [2] were 48 nM and 1.6 nM, respectively.

In the case of `c1cncc(-c2ccc3nnc(Cc4ccc5ncccc5c4)n3n2)c1` [Example 11, 6-(6-Pyridin-3-yl-[1,2,4]triazolo[4,3-b]pyridazin-3-ylmethyl)-quinoline], the IC50 was 86 nM in assay [1] and 6 nM in assay [2].

Regarding `Nc1nc2ccc(Cc3nnc4ccc(-c5cccnc5)nn34)cc2s1` [Example 13, 6-(6-Pyridin-3-yl-[1,2,4]triazolo[4,3-b]pyridazin-3-ylmethyl)-benzothiazol-2-ylamine], the IC50 in assay [1] was 215 nM; in assay [2], 15 nM.

Regarding `CS(=O)(=O)n1cc(-c2ccc3nnc(Cc4ccc5ncccc5c4)n3n2)cn1` [Example 15, 6-[6-(1-Methanesulfonyl-1H-pyrazol-4-yl)-[1,2,4]triazolo[4,3-b]pyridazin-3-ylmethyl]-quinoline], the IC50 amounted to 88 nM in assay [1] and 2 nM in assay [2].

On to `COCCn1cc(-c2ccc3nnc(Cc4ccc5ncccc5c4)n3n2)cn1` [Example 16, 6-{6-[1-(2-Methoxy-ethyl)-1H-pyrazol-4-yl]-[1,2,4]triazolo[4,3-b]pyridazin-3-ylmethyl}-quinoline], for which the IC50 turned out to be 295 nM in assay [1] and 9 nM in assay [2].

Take `Oc1ccc(Cc2nnc3ccc(-c4nccs4)nn23)cc1` [Example 18, 4-(6-Thiazol-2-yl-[1,2,4]triazolo[4,3-b]pyridazin-3-ylmethyl)-phenol]: the IC50 in assay [1] came out at 86 nM; in assay [2], 10 nM.

As for `CCCc1ncc(-c2ccc3nnc(Cc4ccc5ncccc5c4)n3n2)s1` [Example 20, 6-[6-(2-Propyl-thiazol-5-yl)-[1,2,4]triazolo[4,3-b]pyridazin-3-ylmethyl]-quinoline], the results for the IC50 in assay [1] and in assay [2] were 7 nM and 1 nM, respectively.

`c1csc(-c2ccc3nnc(Cc4ccc5c(c4)CCO5)n3n2)c1` [Example 22, 3-(2,3-Dihydro-benzofuran-5-ylmethyl)-6-thiophen-2-yl-[1,2,4]triazolo[4,3-b]pyridazine]: the values for the IC50 in assay [1] and in assay [2] were 9 nM and 15 nM, respectively.

Take `Cc1ccsc1-c1ccc2nnc(Cc3ccc4c(c3)CCO4)n2n1` [Example 23, 3-(2,3-Dihydro-benzofuran-5-ylmethyl)-6-(3-methyl-thiophen-2-yl)-[1,2,4]triazolo[4,3-b]pyridazine]: the figures for the IC50 in assay [1] and in assay [2] were 113 nM and 41 nM, respectively.

As to `COc1ccc(Cc2nnc3ccc(-c4cccs4)nn23)cc1` [Example 25, 3-(4-Methoxy-benzyl)-6-thiophen-2-yl-[1,2,4]triazolo[4,3-b]pyridazine], the IC50 in assay [1] was 483 nM; in assay [2], 41 nM.

`COc1ccc(Cc2nnc3ccc(-c4cccs4)nn23)cn1` [Example 31, 3-(6-Methoxy-pyridin-3-ylmethyl)-6-thiophen-2-yl-[1,2,4]triazolo[4,3-b]pyridazine]: the results for the IC50 in assay [1] and in assay [2] were 2400 nM and 77 nM, respectively.

Take `c1csc(-c2ccc3nnc(Cc4ccncc4)n3n2)c1` [Example 33, 3-Pyridin-4-ylmethyl-6-thiophen-2-yl-[1,2,4]triazolo[4,3-b]pyridazine]: the results for the IC50 in assay [1] and in assay [2] were 9900 nM and 96 nM, respectively.

Turning to `c1csc(-c2ccc3nnc(Cc4ccc5occc5c4)n3n2)c1` [Example 35, 3-Benzofuran-5-ylmethyl-6-thiophen-2-yl-[1,2,4]triazolo[4,3-b]pyridazine], the IC50 in assay [1] was 75 nM; in assay [2], 9 nM.

With `c1csc(-c2ccc3nnc(Cc4ccc5c(c4)OCO5)n3n2)c1` [Example 37, 3-Benzo[1,3]dioxol-5-ylmethyl-6-thiophen-2-yl-[1,2,4]triazolo[4,3-b]pyridazine], the IC50 in assay [1] amounted to 346 nM; in assay [2], 16 nM.

On to `Nc1nc2ccc(Cc3nnc4ccc(-c5cccs5)nn34)cc2s1` [Example 38, 6-(6-Thiophen-2-yl-[1,2,4]triazolo[4,3-b]pyridazin-3-ylmethyl)-benzothiazol-2-ylamine], for which the IC50 in assay [1] was determined as 2 nM; in assay [2], 0.45 nM.

Consider `c1csc(-c2ccc3nnc(Cc4ccc5ncccc5c4)n3n2)c1` [Example 39, 6-(6-Thiophen-2-yl-[1,2,4]triazolo[4,3-b]pyridazin-3-ylmethyl)-quinoline], for which the IC50 came to 1 nM in assay [1] and 2 nM in assay [2].

For the compound `c1cc2c(cc1Cc1nnc3ccc(-c4ccc(CN5CCOCC5)s4)nn13)CCO2` [Example 42, 3-(2,3-Dihydro-benzofuran-5-ylmethyl)-6-(5-morpholin-4-ylmethyl-thiophen-2-yl)-[1,2,4]triazolo[4,3-b]pyridazine], the IC50 is 406 nM in assay [1] and 13 nM in assay [2].

In the case of `c1cnc2ccc(Cc3nnc4ccc(-n5ccnc5)nn34)cc2c1` [Example 43, 6-(6-Imidazol-1-yl-[1,2,4]triazolo[4,3-b]pyridazin-3-ylmethyl)-quinoline], the IC50 in assay [1] was 140 nM; in assay [2], 11 nM.

Consider `Brc1cn(-c2ccc3nnc(Cc4ccc5ncccc5c4)n3n2)cn1` [Example 44, 6-[6-(4-Bromo-imidazol-1-yl)-[1,2,4]triazolo[4,3-b]pyridazin-3-ylmethyl]-quinoline], for which the IC50 in assay [1] stood at 143 nM; in assay [2] it was 2 nM.

Take `CN1CCN(C(=O)c2ccc(-c3ccc4nnc(Cc5ccc6ncccc6c5)n4n3)s2)CC1` [Example 47, (4-Methyl-piperazin-1-yl)-[5-(3-quinolin-6-ylmethyl-[1,2,4]triazolo[4,3-b]pyridazin-6-yl)-thiophen-yl]-methanone]: the IC50 in assay [1] came to 1 nM; in assay [2], 0.4 nM.

Turning to `O=C(c1ccc(-c2ccc3nnc(Cc4ccc5ncccc5c4)n3n2)s1)N1CCS(=O)(=O)CC1` [Example 54, (1,1-Dioxo-1λ6thiomorpholin-4-yl)-[5-(3-quinolin-6-ylmethyl-[1,2,4]triazolo[4,3-b]pyridazin-6-yl)-thiophen-2-yl]-methanone], in assay [1], the IC50 was 6 nM.

Regarding `c1cnc2ccc(Cc3nnc4ccc(-c5ccc6[nH]ccc6c5)nn34)cc2c1` [Example 84, 6-[6-(1H-Indol-5-yl)-[1,2,4]triazolo[4,3-b]pyridazin-3-ylmethyl]-quinoline], the IC50 in assay [1] was determined as 0.9 nM.
